Biological target: transferrin receptor (hTfR) (Homo sapiens, UniProt P02786)
Experiment: Intermolecular interaction evaluation test between transferrin receptor (hTfR) and peptide-nucleic acid conjugate using surface plasmon resonance (SPR)
Assay type: binding
Procedure: Intermolecular interaction evaluation test between transferrin receptor (hTfR) and peptide using surface plasmon resonance (SPR)
The various synthesized peptide-nucleic acid conjugates were tested for intermolecular interaction by surface plasmon resonance (SPR) of the peptide-nucleic acid conjugate with transferrin receptor (hTfR) using the method shown below. The specific test method is shown below.
NTA sensor chip (Global Life Science Technologies Japan Co., Ltd.) was inserted into Biacore T200 (Global Life Science Technologies Japan Co., Ltd.), prime operation was performed three times with running buffer: 10 mM HEPES pH 8.0 (Nacalai Tesque Co., Ltd.), 150 mM NaCl (Nacalai Tesque Co., Ltd.), 0.05% Tween 20 (Nacalai Tesque Co., Ltd.), 0.1% BSA (SIGMA-ALDRICH), and 1.0% DMSO (FUJIFILM Wako Pure Chemical Corporation), and equilibrated at a flow rate of 30 μL/min. 350 mM EDTA solution was reacted for 60 seconds at a flow rate of 10 μL/min, 0.5 mM NiCl2 solution (Kishida Chemical) was reacted for 60 seconds at a flow rate of 10 μL/min, and the NTA sensor chip was washed with 3 mM EDTA solution (Nacalai Tesque Co., Ltd.) for 60 seconds at a flow rate of 10 μL/min. After mixing 50 μL each of […] EDC solution (Global Life Science Technologies Japan Co., Ltd.) and […] NHS solution (Global Life Science Technologies Japan Co., Ltd.), the mixture was reacted for 420 seconds at a flow rate of 10 μL/min. 150 μL of a 0.5 μM hTfR solution was prepared by diluting with a running buffer and reacted for 300 seconds at a flow rate of 10 μL/min to immobilize hTfR on the NTA sensor chip. After immobilization, capping was performed by reacting with a 1.0 M ethanolamine aqueous solution (Global Life Science Technologies Japan Co., Ltd.) at a flow rate of 10 μL/min for 420 seconds. A peptide-nucleic acid conjugate solution adjusted to 10 mM in DMSO solution was diluted with running buffer to a final concentration of 10 μM peptide-nucleic acid conjugate solution, and 100 nM, 50 nM, 25 nM, 10 nM, 5 nM peptide-nucleic acid conjugate solutions were prepared. Using the aforementioned samples, the kinetics of the peptide against hTfR was obtained by SPR measurement.
The kinetics evaluation model was Single Cycle Kinetics, and curve fitting was performed using Biacore T200 Evaluation Software Version 3.0 (Global Life Science Technologies Japan Co., Ltd.). The obtained sensorgram was subjected to curve fitting using the least squares method, and the binding of the peptide-nucleic acid conjugate to hTfR was evaluated by determining the KD value.

Sequence of transferrin receptor (hTfR) (P02786 whole entry): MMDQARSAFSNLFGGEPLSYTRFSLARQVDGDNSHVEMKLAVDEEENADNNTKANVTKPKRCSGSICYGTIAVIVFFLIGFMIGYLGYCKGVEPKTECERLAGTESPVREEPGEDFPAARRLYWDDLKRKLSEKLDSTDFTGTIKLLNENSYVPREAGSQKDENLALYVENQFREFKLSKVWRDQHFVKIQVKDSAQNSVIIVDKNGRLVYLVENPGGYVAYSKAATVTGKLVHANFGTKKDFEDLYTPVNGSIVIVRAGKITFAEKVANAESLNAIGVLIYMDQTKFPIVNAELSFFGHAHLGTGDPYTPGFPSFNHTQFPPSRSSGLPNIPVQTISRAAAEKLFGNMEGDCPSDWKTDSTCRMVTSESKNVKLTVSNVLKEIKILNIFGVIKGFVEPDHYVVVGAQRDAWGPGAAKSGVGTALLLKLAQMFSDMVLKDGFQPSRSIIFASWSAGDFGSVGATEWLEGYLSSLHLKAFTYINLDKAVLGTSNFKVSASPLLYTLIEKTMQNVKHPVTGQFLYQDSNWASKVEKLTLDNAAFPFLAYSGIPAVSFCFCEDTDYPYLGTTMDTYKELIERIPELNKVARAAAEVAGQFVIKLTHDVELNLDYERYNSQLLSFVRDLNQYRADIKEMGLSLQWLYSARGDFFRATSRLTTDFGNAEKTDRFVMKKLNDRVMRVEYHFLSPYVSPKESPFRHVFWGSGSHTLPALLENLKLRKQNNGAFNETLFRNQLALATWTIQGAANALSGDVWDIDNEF

| SMILES | Kd [nM] |
| --- | --- |
| CC[C@H](C)[C@@H]1NC(=O)[C@H](Cc2ccc(O)cc2)NC(=O)[C@H](Cc2ccc(O)cc2)NC(=O)[C@H](CC(N)=O)NC(=O)[C@H](Cc2c[nH]c3ccccc23)NC(=O)[C@H](C(C)C)NC(=O)[C@H](Cc2ccccc2)N(C)C(=O)[C@H](C(C)C)NC(=O)[C@H](C)NC(=O)CSC[C@@H](C(=O)NCC(=O)N[C@@H](CCCCn2nnc3c2CCC2C(CC3)C2COC(=O)NCC(=O)NCC(=O)NCC(=O)N[C@@H](CCC(=O)O)C(=O)N[C@@H](CCC(=O)O)C(=O)N[C@@H](CCC(=O)O)C(=O)N[C@@H](CO)C(=O)N[C@@H](CO)C(=O)N[C@@H](CSC2CC(=O)N(CCC(=O)N3C[C@@H](COP(=O)(N(C)C)N4C[C@@H](COP(=O)(N(C)C)N5C[C@@H](COP(=O)(N(C)C)N6C[C@@H](COP(=O)(N(C)C)N7C[C@@H](COP(=O)(N(C)C)N8C[C@@H](COP(=O)(N(C)C)N9C[C@@H](COP(=O)(N(C)C)N%10C[C@@H](COP(=O)(N(C)C)N%11C[C@@H](COP(=O)(N(C)C)N%12C[C@@H](COP(=O)(N(C)C)N%13C[C@@H](COP(=O)(N(C)C)N%14C[C@@H](COP(=O)(N(C)C)N%15C[C@@H](COP(=O)(N(C)C)N%16C[C@@H](COP(=O)(N(C)C)N%17C[C@@H](COP(=O)(N(C)C)N%18C[C@@H](COP(=O)(N(C)C)N%19C[C@@H](COP(=O)(N(C)C)N%20C[C@@H](COP(=O)(N(C)C)N%21C[C@@H](COP(=O)(N(C)C)N%22C[C@@H](COP(=O)(N(C)C)N%23C[C@@H](COP(=O)(N(C)C)N%24C[C@@H](COP(=O)(N(C)C)N%25C[C@@H](COP(=O)(N(C)C)N%26C[C@@H](COP(=O)(N(C)C)N%27C[C@@H](COP(=O)(N(C)C)N(C)CC(N)=O)O[C@@H](n%28cnc%29c(=O)[nH]c(N)nc%29%28)C%27)O[C@@H](n%27cc(C)c(=O)[nH]c%27=O)C%26)O[C@@H](n%26cc(C)c(=O)[nH]c%26=O)C%25)O[C@@H](n%25cnc%26c(=O)[nH]c(N)nc%26%25)C%24)O[C@@H](n%24ccc(N)nc%24=O)C%23)O[C@@H](n%23ccc(N)nc%23=O)C%22)O[C@@H](n%22cc(C)c(=O)[nH]c%22=O)C%21)O[C@@H](n%21ccc(N)nc%21=O)C%20)O[C@@H](n%20ccc(N)nc%20=O)C%19)O[C@@H](n%19cnc%20c(=O)[nH]c(N)nc%20%19)C%18)O[C@@H](n%18cnc%19c(=O)[nH]c(N)nc%19%18)C%17)O[C@@H](n%17cc(C)c(=O)[nH]c%17=O)C%16)O[C@@H](n%16cc(C)c(=O)[nH]c%16=O)C%15)O[C@@H](n%15ccc(N)nc%15=O)C%14)O[C@@H](n%14cc(C)c(=O)[nH]c%14=O)C%13)O[C@@H](n%13cnc%14c(=O)[nH]c(N)nc%14%13)C%12)O[C@@H](n%12cnc%13c(N)ncnc%13%12)C%11)O[C@@H](n%11cnc%12c(N)ncnc%12%11)C%10)O[C@@H](n%10cnc%11c(=O)[nH]c(N)nc%11%10)C9)O[C@@H](n9cnc%10c(=O)[nH]c(N)nc%109)C8)O[C@@H](n8cc(C)c(=O)[nH]c8=O)C7)O[C@@H](n7cnc8c(=O)[nH]c(N)nc87)C6)O[C@@H](n6cc(C)c(=O)[nH]c6=O)C5)O[C@@H](n5cc(C)c(=O)[nH]c5=O)C4)O[C@@H](n4ccc(N)nc4=O)C3)C2=O)C(N)=O)C(N)=O)NC(=O)[C@H](Cc2ccc(O)cc2)N(C)C(=O)[C@H](Cc2ccc(O)cc2)NC(=O)[C@H](CCCNC(=N)N)NC(=O)[C@H](CCCNC(=N)N)NC(=O)[C@H]([C@@H](C)CC)NC1=O (some centres unmarked) [Example 58] | < 100 |
| CC[C@H](C)[C@@H]1NC(=O)[C@H](Cc2ccc(O)cc2)NC(=O)[C@H](Cc2ccc(O)cc2)NC(=O)[C@H](CC(N)=O)NC(=O)[C@H](Cc2c[nH]c3ccccc23)NC(=O)[C@H](C(C)C)NC(=O)[C@H](Cc2ccccc2)N(C)C(=O)[C@H](C(C)C)NC(=O)[C@H](C)NC(=O)CSC[C@@H](C(=O)NCC(=O)N[C@@H](CCCCn2cc(CCC(=O)NCCOCCOCC(=O)N[C@@H](CCCNC(=N)N)C(=O)N[C@@H](CCCNC(=N)N)C(=O)N[C@@H](CCCNC(=N)N)C(=O)NCC(=O)N3C[C@@H](COP(=O)(N(C)C)N4C[C@@H](COP(=O)(N(C)C)N5C[C@@H](COP(=O)(N(C)C)N6C[C@@H](COP(=O)(N(C)C)N7C[C@@H](COP(=O)(N(C)C)N8C[C@@H](COP(=O)(N(C)C)N9C[C@@H](COP(=O)(N(C)C)N%10C[C@@H](COP(=O)(N(C)C)N%11C[C@@H](COP(=O)(N(C)C)N%12C[C@@H](COP(=O)(N(C)C)N%13C[C@@H](COP(=O)(N(C)C)N%14C[C@@H](COP(=O)(N(C)C)N%15C[C@@H](COP(=O)(N(C)C)N%16C[C@@H](COP(=O)(N(C)C)N%17C[C@@H](COP(=O)(N(C)C)N%18C[C@@H](COP(=O)(N(C)C)N%19C[C@@H](COP(=O)(N(C)C)N%20C[C@@H](COP(=O)(N(C)C)N%21C[C@@H](COP(=O)(N(C)C)N%22C[C@@H](COP(=O)(N(C)C)N%23C[C@@H](COP(=O)(N(C)C)N%24C[C@@H](COP(=O)(N(C)C)N%25C[C@@H](COP(=O)(N(C)C)N%26C[C@@H](COP(=O)(N(C)C)N%27C[C@@H](COP(=O)(N(C)C)N(C)CC(N)=O)O[C@@H](n%28cnc%29c(=O)[nH]c(N)nc%29%28)C%27)O[C@@H](n%27cnc%28c(=O)[nH]c(N)nc%28%27)C%26)O[C@@H](n%26ccc(N)nc%26=O)C%25)O[C@@H](n%25ccc(N)nc%25=O)C%24)O[C@@H](n%24cnc%25c(N)ncnc%25%24)C%23)O[C@@H](n%23cnc%24c(N)ncnc%24%23)C%22)O[C@@H](n%22cnc%23c(N)ncnc%23%22)C%21)O[C@@H](n%21ccc(N)nc%21=O)C%20)O[C@@H](n%20ccc(N)nc%20=O)C%19)O[C@@H](n%19cc(C)c(=O)[nH]c%19=O)C%18)O[C@@H](n%18ccc(N)nc%18=O)C%17)O[C@@H](n%17cnc%18c(=O)[nH]c(N)nc%18%17)C%16)O[C@@H](n%16cnc%17c(=O)[nH]c(N)nc%17%16)C%15)O[C@@H](n%15ccc(N)nc%15=O)C%14)O[C@@H](n%14cc(C)c(=O)[nH]c%14=O)C%13)O[C@@H](n%13cc(C)c(=O)[nH]c%13=O)C%12)O[C@@H](n%12cnc%13c(N)ncnc%13%12)C%11)O[C@@H](n%11ccc(N)nc%11=O)C%10)O[C@@H](n%10ccc(N)nc%10=O)C9)O[C@@H](n9cc(C)c(=O)[nH]c9=O)C8)O[C@@H](n8cnc9c(=O)[nH]c(N)nc98)C7)O[C@@H](n7cnc8c(N)ncnc87)C6)O[C@@H](n6cnc7c(N)ncnc76)C5)O[C@@H](n5cnc6c(N)ncnc65)C4)O[C@@H](n4cc(C)c(=O)[nH]c4=O)C3)nn2)C(N)=O)NC(=O)[C@H](Cc2ccc(O)cc2)N(C)C(=O)[C@H](Cc2ccc(O)cc2)NC(=O)[C@H](CCCNC(=N)N)NC(=O)[C@H](CCCNC(=N)N)NC(=O)[C@H]([C@@H](C)CC)NC1=O (some centres unmarked) [Example 60] | < 100 |
